What was measured:
Type in all cases: functional, cell-based
[1] = biological target: T1, Excitatory amino acid transporter 3 (Homo sapiens, UniProt P43005); assay: Inhibition of human EAAT3 expressed in HEK293 cells by FLIPR membrane potential assay
T1 sequence (P43005 whole entry): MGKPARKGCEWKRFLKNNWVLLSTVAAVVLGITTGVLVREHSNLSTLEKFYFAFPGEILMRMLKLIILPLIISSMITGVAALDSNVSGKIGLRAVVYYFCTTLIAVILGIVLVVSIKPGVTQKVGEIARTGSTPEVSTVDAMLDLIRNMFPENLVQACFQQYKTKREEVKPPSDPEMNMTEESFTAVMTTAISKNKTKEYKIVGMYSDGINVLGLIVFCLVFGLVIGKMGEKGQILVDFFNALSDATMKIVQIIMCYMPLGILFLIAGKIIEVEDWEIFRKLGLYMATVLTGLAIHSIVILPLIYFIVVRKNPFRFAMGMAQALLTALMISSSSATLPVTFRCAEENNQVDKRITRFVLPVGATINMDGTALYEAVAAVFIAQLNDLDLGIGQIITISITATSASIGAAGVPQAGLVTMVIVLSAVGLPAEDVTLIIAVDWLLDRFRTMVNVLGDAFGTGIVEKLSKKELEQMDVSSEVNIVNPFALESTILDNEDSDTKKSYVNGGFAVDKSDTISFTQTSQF

[2] = biological target: Excitatory amino acid transporter 2 (Homo sapiens, UniProt P43004); assay: Inhibition of human EAAT2 expressed in HEK293 cells by FLIPR membrane potential assay
[3] = biological target: Excitatory amino acid transporter 1 (Homo sapiens, UniProt P43003); assay: Inhibition of human EAAT1 expressed in HEK293 cells by FLIPR membrane potential assay
Chain of Excitatory amino acid transporter 1 (P43003 whole entry): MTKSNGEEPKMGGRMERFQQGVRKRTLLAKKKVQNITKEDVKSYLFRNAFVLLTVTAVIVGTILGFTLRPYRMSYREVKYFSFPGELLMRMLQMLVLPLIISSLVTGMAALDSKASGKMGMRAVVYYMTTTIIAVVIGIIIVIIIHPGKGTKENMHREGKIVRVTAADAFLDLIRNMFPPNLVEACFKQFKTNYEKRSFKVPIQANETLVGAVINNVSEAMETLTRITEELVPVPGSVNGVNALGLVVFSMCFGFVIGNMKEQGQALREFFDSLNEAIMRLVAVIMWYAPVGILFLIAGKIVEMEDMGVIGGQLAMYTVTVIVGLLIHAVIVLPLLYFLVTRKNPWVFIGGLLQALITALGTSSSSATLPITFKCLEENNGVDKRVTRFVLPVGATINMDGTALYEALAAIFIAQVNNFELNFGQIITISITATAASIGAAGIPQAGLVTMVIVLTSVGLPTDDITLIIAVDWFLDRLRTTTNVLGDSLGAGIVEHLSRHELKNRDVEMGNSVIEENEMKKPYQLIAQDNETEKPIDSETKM

Chain of Excitatory amino acid transporter 2 (P43004 whole entry): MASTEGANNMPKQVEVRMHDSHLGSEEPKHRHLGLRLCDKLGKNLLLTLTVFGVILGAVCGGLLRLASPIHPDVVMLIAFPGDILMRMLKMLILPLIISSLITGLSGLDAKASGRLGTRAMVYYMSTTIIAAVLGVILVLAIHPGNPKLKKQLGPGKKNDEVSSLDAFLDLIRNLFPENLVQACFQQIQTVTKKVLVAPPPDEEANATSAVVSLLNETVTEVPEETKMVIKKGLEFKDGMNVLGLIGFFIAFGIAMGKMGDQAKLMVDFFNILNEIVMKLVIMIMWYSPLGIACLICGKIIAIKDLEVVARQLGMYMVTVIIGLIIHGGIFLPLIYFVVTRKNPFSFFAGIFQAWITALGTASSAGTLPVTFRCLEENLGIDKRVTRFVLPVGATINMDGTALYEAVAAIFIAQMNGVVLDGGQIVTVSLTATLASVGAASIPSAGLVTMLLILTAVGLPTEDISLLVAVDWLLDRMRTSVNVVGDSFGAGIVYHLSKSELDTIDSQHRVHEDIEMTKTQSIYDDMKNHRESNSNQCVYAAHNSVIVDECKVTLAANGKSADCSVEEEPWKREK

| Ki [1] | Ki [2] | Ki [3] | SMILES |
| --- | --- | --- | --- |
| 49 µM | 22 µM | – | N[C@H](C(=O)O)[C@@H]1CC[C@H]1C(=O)O |
| 10 µM | 6.6 µM | 200 µM | N[C@H](C(=O)O)[C@@H]1CC[C@@H]1C(=O)O |
